Experimental data: PMC11871066, “Structure-based discovery of hydrocarbon-stapled paxillin peptides that block FAK scaffolding in cancer” (Nature Communications, 2025)

Assays:
Assay in all cases: Eurofins KINOMEscan profiling, 97 kinases
[1] = target: 97 kinases (kinase named in endpoint) (Homo sapiens, UniProt Q00526); settings: read-out: % Ctrl, CDK3
Experimental: (§1) This experiment was performed by Eurofins KINOMEscan™ Profiling Service. […] The lysates were centrifuged and filtered, the remaining kinases were produced in HEK-293 cells and subsequently tagged with DNA for qPCR detection. […] The liganded beads were blocked with excess biotin and washed with blocking buffer (SeaBlock (Pierce), 1% BSA, 0.05% Tween-20, 1 mM DTT). […] Test compounds were prepared as 100x stocks in 100% DMSO and directly diluted into the assay. All reactions were performed in polypropylene 384-well plates in a final volume of 0.02 ml. […] The kinase concentration in the eluates was measured by qPCR.
(§2) (negative control signal - positive control signal)] x 100. ( b) AccompanyingSelectivity Scores or S -scores
(§3) which are quantitative measures of compound selectivity. They are calculated by dividing the number of
(§4) kinases that compounds bind to by the total number of distinct kinases tested, excluding mutant variants.
(§5) S(35)= ( num ber of non -mutant kinases with %Ctrl <35)/(number of non- mutant kinases tested)], S(10)=
(§6) non- mutant kinases with %Ctrl <1)/(number of non- mutant kinases tested)].

[2] = target: 97 kinases (kinase named in endpoint) (Homo sapiens, UniProt P08581); settings: read-out: % Ctrl, MET
Experimental: as §1, §2, §3, §4, §5, §6

[3] = target: 97 kinases (kinase named in endpoint) (Homo sapiens, UniProt P45984); settings: read-out: % Ctrl, JNK2
Experimental: as §1, §2, §3, §4, §5, §6

[4] = target: 97 kinases (kinase named in endpoint) (Homo sapiens, UniProt Q15303); settings: read-out: % Ctrl, ERBB4
Experimental: as §1, §2, §3, §4, §5, §6

[5] = target: 97 kinases (kinase named in endpoint) (Homo sapiens, UniProt Q05397); settings: read-out: % Ctrl, FAK
Experimental: as §1, §2, §3, §4, §5, §6

[6] = target: 97 kinases (kinase named in endpoint) (Homo sapiens, UniProt Q9UM73); settings: read-out: % Ctrl, ALK
Experimental: as §1, §2, §3, §4, §5, §6

[7] = target: 97 kinases (kinase named in endpoint) (Homo sapiens, UniProt P51812); settings: read-out: % Ctrl, RSK2(Kin.Dom.1-N-terminal)
Experimental: as §1, §2, §3, §4, §5, §6

[8] = target: 97 kinases (kinase named in endpoint) (Homo sapiens, UniProt P78368); settings: read-out: % Ctrl, CSNK1G2
Experimental: as §1, §2, §3, §4, §5, §6

[9] = target: 97 kinases (kinase named in endpoint) (Homo sapiens, UniProt P11309); settings: read-out: % Ctrl, PIM1
Experimental: as §1, §2, §3, §4, §5, §6

[10] = target: 97 kinases (kinase named in endpoint) (Homo sapiens, UniProt O14965); settings: read-out: % Ctrl, AURKA
Experimental: as §1, §2, §3, §4, §5, §6

[11] = target: 97 kinases (kinase named in endpoint) (Homo sapiens, UniProt P36888); settings: read-out: % Ctrl, FLT3
Experimental: as §1, §2, §3, §4, §5, §6

[12] = target: 97 kinases (kinase named in endpoint) (Homo sapiens, UniProt Q9BXA7); settings: read-out: % Ctrl, TSSK1B
Experimental: as §1, §2, §3, §4, §5, §6

[13] = target: 97 kinases (kinase named in endpoint) (Homo sapiens, UniProt Q02156); settings: read-out: % Ctrl, PRKCE
Experimental: as §1, §2, §3, §4, §5, §6

[14] = target: 97 kinases (kinase named in endpoint) (Homo sapiens, UniProt Q13177); settings: read-out: % Ctrl, PAK2
Experimental: as §1, §2, §3, §4, §5, §6

[15] = target: 97 kinases (kinase named in endpoint) (Homo sapiens, UniProt Q9BVS4); settings: read-out: % Ctrl, RIOK2
Experimental: as §1, §2, §3, §4, §5, §6

[16] = target: 97 kinases (kinase named in endpoint) (Homo sapiens, UniProt P22607); settings: read-out: % Ctrl, FGFR3
Experimental: as §1, §2, §3, §4, §5, §6

[17] = target: 97 kinases (kinase named in endpoint) (Homo sapiens, UniProt Q06187); settings: read-out: % Ctrl, BTK
Experimental: as §1, §2, §3, §4, §5, §6

[18] = target: 97 kinases (kinase named in endpoint) (Homo sapiens, UniProt P10721, T670I/V559D); settings: read-out: % Ctrl, KIT(V559D,T670I)
Experimental: as §1, §2, §3, §4, §5, §6

[19] = target: 97 kinases (kinase named in endpoint) (Homo sapiens, UniProt P36897); settings: read-out: % Ctrl, TGFBR1
Experimental: as §1, §2, §3, §4, §5, §6

[20] = target: 97 kinases (kinase named in endpoint) (Homo sapiens, UniProt P49841); settings: read-out: % Ctrl, GSK3B
Experimental: as §1, §2, §3, §4, §5, §6

[21] = target: 97 kinases (kinase named in endpoint) (Homo sapiens, UniProt Q15759); settings: read-out: % Ctrl, p38-beta
Experimental: as §1, §2, §3, §4, §5, §6

[22] = target: 97 kinases (kinase named in endpoint) (Homo sapiens, UniProt Q9H093); settings: read-out: % Ctrl, SNARK
Experimental: as §1, §2, §3, §4, §5, §6

[23] = target: 97 kinases (kinase named in endpoint) (Homo sapiens, UniProt Q02763); settings: read-out: % Ctrl, TIE2
Experimental: as §1, §2, §3, §4, §5, §6

[24] = target: 97 kinases (kinase named in endpoint) (Homo sapiens, UniProt Q8IYT8); settings: read-out: % Ctrl, ULK2
Experimental: as §1, §2, §3, §4, §5, §6

[25] = target: 97 kinases (kinase named in endpoint) (Homo sapiens, UniProt P27448); settings: read-out: % Ctrl, MARK3
Experimental: as §1, §2, §3, §4, §5, §6

[26] = target: 97 kinases (kinase named in endpoint) (Homo sapiens, UniProt P50613); settings: read-out: % Ctrl, CDK7
Experimental: as §1, §2, §3, §4, §5, §6

[27] = target: 97 kinases (kinase named in endpoint) (Homo sapiens, UniProt P53779); settings: read-out: % Ctrl, JNK3
Experimental: as §1, §2, §3, §4, §5, §6

[28] = target: 97 kinases (kinase named in endpoint) (Homo sapiens, UniProt Q9H4B4); settings: read-out: % Ctrl, PLK3
Experimental: as §1, §2, §3, §4, §5, §6

97 kinases (kinase named in endpoint) (Homo sapiens, UniProt Q00526), sequence (Q00526 whole entry): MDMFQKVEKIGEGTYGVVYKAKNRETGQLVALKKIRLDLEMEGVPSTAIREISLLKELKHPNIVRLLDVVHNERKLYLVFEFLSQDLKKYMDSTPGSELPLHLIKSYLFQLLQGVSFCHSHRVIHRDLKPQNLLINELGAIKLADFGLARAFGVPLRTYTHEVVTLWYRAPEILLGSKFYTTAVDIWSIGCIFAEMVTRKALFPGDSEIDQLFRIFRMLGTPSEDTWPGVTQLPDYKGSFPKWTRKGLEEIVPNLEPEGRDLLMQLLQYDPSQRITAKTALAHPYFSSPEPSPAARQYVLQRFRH
97 kinases (kinase named in endpoint) (Homo sapiens, UniProt O14965), sequence (O14965 whole entry): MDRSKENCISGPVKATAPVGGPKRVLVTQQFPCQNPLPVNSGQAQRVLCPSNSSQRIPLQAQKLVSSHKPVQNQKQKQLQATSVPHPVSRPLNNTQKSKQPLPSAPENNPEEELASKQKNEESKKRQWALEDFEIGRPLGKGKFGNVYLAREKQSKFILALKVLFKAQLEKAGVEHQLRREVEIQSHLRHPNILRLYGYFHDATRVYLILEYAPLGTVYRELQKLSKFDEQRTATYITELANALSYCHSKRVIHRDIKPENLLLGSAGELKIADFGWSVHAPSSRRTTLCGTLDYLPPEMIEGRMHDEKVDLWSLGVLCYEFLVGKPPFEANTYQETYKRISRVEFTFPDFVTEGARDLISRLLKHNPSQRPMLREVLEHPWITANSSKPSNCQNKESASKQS
97 kinases (kinase named in endpoint) (Homo sapiens, UniProt Q9BVS4), sequence (Q9BVS4 whole entry): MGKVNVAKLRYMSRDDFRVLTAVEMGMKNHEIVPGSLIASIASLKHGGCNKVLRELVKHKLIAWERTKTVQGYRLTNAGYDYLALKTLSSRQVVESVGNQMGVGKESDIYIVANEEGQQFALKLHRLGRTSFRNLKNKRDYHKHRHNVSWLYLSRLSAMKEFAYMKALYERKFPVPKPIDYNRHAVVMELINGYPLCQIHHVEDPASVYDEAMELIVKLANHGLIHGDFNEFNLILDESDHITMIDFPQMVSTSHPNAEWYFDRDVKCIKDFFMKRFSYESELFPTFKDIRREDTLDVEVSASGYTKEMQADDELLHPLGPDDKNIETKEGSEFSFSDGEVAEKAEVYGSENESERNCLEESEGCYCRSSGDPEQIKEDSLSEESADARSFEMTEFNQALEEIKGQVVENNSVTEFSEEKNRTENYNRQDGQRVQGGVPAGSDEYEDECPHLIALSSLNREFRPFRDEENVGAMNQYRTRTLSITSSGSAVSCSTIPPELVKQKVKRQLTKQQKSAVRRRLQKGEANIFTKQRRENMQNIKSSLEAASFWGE
97 kinases (kinase named in endpoint) (Homo sapiens, UniProt P27448), sequence (P27448 whole entry): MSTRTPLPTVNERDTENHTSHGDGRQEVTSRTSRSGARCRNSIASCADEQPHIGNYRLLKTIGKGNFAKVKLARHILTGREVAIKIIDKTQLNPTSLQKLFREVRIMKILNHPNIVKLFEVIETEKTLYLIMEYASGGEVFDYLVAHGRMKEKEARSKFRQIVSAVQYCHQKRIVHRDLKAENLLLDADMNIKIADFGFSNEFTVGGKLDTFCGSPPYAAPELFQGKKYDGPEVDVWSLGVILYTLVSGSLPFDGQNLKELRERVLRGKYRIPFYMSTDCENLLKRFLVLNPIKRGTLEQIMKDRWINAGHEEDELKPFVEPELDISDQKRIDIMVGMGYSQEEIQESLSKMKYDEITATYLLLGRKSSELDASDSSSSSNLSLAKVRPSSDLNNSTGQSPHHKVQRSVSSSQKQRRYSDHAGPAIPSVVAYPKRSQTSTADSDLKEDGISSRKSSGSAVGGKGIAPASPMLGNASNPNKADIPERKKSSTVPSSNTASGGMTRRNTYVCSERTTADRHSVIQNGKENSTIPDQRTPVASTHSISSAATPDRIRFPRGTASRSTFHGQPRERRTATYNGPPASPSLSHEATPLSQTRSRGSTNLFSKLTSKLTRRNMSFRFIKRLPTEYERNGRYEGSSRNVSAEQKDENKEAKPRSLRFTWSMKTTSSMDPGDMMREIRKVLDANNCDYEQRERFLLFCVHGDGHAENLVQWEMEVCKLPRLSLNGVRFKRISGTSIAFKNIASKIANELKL
97 kinases (kinase named in endpoint) (Homo sapiens, UniProt P78368), sequence (P78368 whole entry): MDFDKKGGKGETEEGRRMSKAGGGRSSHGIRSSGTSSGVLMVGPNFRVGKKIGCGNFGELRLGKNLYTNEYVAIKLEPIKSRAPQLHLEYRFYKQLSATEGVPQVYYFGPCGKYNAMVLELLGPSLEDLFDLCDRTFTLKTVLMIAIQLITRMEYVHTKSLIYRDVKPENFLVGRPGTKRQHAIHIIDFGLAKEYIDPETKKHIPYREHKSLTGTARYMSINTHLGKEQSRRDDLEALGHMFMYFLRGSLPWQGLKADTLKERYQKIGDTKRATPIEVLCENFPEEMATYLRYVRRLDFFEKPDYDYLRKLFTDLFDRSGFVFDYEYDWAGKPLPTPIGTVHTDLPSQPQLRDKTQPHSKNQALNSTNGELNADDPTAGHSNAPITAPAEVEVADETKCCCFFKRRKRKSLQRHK
97 kinases (kinase named in endpoint) (Homo sapiens, UniProt Q8IYT8), sequence (Q8IYT8 whole entry): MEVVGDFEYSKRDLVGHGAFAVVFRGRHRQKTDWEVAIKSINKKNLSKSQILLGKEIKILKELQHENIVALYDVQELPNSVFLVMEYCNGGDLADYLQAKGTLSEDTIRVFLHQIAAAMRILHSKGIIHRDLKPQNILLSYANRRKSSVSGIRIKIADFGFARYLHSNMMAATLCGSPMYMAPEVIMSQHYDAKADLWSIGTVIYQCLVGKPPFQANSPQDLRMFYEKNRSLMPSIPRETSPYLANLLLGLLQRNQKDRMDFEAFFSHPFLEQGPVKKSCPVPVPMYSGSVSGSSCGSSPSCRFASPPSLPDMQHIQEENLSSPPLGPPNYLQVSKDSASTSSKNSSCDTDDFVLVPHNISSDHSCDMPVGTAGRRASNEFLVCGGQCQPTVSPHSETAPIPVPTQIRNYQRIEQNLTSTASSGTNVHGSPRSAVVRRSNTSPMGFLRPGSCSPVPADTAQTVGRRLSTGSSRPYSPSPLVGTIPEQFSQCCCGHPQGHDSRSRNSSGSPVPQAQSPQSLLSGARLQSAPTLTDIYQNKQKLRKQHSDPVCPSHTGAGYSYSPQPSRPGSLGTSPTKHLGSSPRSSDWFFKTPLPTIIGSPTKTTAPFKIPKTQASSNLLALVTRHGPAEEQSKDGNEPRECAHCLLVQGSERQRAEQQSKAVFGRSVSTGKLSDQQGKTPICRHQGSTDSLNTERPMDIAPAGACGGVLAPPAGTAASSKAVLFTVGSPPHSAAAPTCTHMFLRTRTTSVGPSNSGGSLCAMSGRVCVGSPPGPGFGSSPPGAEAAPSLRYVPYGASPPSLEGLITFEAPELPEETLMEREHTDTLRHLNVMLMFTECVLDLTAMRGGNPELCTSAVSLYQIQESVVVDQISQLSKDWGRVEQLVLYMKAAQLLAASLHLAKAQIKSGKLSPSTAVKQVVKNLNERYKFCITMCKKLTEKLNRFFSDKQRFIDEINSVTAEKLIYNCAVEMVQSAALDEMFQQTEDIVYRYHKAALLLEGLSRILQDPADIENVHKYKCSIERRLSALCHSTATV
97 kinases (kinase named in endpoint) (Homo sapiens, UniProt P49841), sequence (P49841 whole entry): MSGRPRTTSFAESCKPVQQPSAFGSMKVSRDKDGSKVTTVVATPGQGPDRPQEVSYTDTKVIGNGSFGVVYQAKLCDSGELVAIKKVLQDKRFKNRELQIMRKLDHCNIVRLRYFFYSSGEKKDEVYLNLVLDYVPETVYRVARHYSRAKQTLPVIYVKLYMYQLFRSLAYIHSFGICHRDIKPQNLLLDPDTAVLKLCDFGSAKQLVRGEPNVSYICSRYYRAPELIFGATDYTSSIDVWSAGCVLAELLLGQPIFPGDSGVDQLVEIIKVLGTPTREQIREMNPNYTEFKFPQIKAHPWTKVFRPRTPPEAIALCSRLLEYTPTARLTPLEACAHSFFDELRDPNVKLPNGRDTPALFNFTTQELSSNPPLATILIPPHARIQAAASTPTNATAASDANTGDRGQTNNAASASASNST
97 kinases (kinase named in endpoint) (Homo sapiens, UniProt P11309), sequence (P11309 whole entry): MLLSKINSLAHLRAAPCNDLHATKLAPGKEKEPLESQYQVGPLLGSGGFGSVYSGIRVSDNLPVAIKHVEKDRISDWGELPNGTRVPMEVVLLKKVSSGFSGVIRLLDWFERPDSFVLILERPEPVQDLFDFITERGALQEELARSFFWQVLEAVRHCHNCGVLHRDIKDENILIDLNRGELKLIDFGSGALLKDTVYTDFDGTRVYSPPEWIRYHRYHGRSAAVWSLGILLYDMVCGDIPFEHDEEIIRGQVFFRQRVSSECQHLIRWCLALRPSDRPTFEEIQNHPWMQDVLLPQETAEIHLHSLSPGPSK
97 kinases (kinase named in endpoint) (Homo sapiens, UniProt Q02156), sequence (Q02156 whole entry): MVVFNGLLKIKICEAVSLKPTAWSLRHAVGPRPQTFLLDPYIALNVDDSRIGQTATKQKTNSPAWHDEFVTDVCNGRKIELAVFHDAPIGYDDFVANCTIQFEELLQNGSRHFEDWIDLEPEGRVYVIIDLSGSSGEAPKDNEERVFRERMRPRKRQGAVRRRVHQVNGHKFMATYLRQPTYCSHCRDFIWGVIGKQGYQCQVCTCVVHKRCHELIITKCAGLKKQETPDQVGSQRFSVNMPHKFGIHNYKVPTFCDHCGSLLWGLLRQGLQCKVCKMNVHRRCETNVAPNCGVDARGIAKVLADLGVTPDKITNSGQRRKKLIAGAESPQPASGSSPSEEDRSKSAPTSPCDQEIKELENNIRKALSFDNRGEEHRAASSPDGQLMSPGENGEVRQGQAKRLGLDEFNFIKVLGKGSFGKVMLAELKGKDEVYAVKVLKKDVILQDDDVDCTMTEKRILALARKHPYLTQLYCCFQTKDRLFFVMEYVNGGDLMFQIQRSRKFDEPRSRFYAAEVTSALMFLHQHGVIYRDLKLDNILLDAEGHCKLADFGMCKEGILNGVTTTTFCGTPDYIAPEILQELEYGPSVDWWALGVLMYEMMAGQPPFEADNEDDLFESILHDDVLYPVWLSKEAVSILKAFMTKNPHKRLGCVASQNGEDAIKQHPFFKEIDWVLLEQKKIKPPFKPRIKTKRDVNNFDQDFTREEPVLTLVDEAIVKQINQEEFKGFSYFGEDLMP

Work on CCCCCCCCCCCCCC(=O)N[C@@H](CC(N)=O)C(=O)N[C@@H](CC(C)C)C(=O)N[C@]1(C)CCCCCCC=CCCC[C@@](C)(C(=O)N[C@@H](CCC(=O)O)C(=O)N[C@@H](CC(C)C)C(=O)N[C@@H](CC(N)=O)C(N)=O)NC(=O)[C@H](CC(C)C)NC(=O)[C@H](CC(C)C)NC(=O)[C@H](CCCNC(=N)N)NC(=O)[C@H](CC(=O)O)NC(=O)[C@H](CC(C)C)NC(=O)[C@H](CCC(=O)O)NC1=O [compound 2012] yielded a remaining binding at 1 µM [1] of 89%, a remaining binding at 1 µM [2] of 100% and a remaining binding at 1 µM [3] of 100%. For the same compound, the remaining binding at 1 µM [4] was 83%, the remaining binding at 1 µM [5] was 96% and the remaining binding at 1 µM [6] was 100%. It also gave a remaining binding at 1 µM [7] of 100%, a remaining binding at 1 µM [8] of 99% and a remaining binding at 1 µM [9] of 100%. The remaining binding at 1 µM [10] was 100%, the remaining binding at 1 µM [11] was 93% and the remaining binding at 1 µM [12] was 98%. The remaining binding at 1 µM [13] was 53%, the remaining binding at 1 µM [14] was 100% and the remaining binding at 1 µM [15] was 91%. It also gave a remaining binding at 1 µM [16] of 95%, a remaining binding at 1 µM [17] of 100% and a remaining binding at 1 µM [18] of 93%. For the same compound, the remaining binding at 1 µM [19] was 93%, the remaining binding at 1 µM [20] was 100% and the remaining binding at 1 µM [21] was 98%. For the same compound, the remaining binding at 1 µM [22] was 100%, the remaining binding at 1 µM [23] was 98% and the remaining binding at 1 µM [24] was 100%. The remaining binding at 1 µM [25] was 91%, the remaining binding at 1 µM [26] was 69% and the remaining binding at 1 µM [27] was 100%. It also gave a remaining binding at 1 µM [28] of 94%.
Work on CNC(=O)c1ccc(Nc2ncc(C(F)(F)F)c(NCc3nccnc3N(C)S(C)(=O)=O)n2)cc1 [defactinib] yielded a remaining binding at 1 µM [1] of 62%, a remaining binding at 1 µM [2] of 15% and a remaining binding at 1 µM [3] of 52%. It also gave a remaining binding at 1 µM [4] of 100%, a remaining binding at 1 µM [5] of 0.1% and a remaining binding at 1 µM [6] of 32%. It also gave a remaining binding at 1 µM [7] of 9.9%, a remaining binding at 1 µM [8] of 39% and a remaining binding at 1 µM [9] of 73%. It also gave a remaining binding at 1 µM [10] of 3.9%, a remaining binding at 1 µM [11] of 1.1% and a remaining binding at 1 µM [12] of 82%. The remaining binding at 1 µM [13] was 42%, the remaining binding at 1 µM [14] was 45% and the remaining binding at 1 µM [15] was 50%. The remaining binding at 1 µM [16] was 45%, the remaining binding at 1 µM [17] was 100% and the remaining binding at 1 µM [18] was 37%. For the same compound, the remaining binding at 1 µM [19] was 91%, the remaining binding at 1 µM [20] was 75% and the remaining binding at 1 µM [21] was 89%. The remaining binding at 1 µM [22] was 13%, the remaining binding at 1 µM [23] was 41% and the remaining binding at 1 µM [24] was 28%. It also gave a remaining binding at 1 µM [25] of 50%, a remaining binding at 1 µM [26] of 22% and a remaining binding at 1 µM [27] of 90%. For the same compound, the remaining binding at 1 µM [28] was 28%.
